Data reported in US20030083338A1, “Compositions and methods for management of serotonin-mediated disorders” (priority 2001, published 2003).

Assays:
[1] = target: T1, Human D2 Receptor (Homo sapiens, UniProt P14416); experiment: Human D2 receptor binding ([3H]spiperone); settings: comment on Table 1
T1 construct: expressed in transfected cells; host or cells: A9L cells
Description: (§1) Dopamine and serotonin receptor binding assays were performed in a standard manner with the incubation of membrane preparations in an assay buffer in the presence of a known radioactively labeled specific ligand for the receptor subtypes. Nonspecific binding was determined by assessing binding in the presence of excess ligand. Specific binding was measured as the total labeled ligand bound after the nonspecific binding was subtracted. The effect of the tested agents was measured by determining the competition for the receptor binding across a concentration range. Subsequently, an IC50 was determined for the agents tested. More specific details are provided below for several of the assays performed.
Aliquots of transfected A9L cell membrane preparations corresponding to 20-40 μg protein are incubated for 60 min at 22° C. in 250 μL of 50 mM Tris-HCl buffer (pH 7.4) containing 120 mM NaCl, 5 mM KCl, 5 mM MgCl2, 1 mM EDTA, 0.3 nM [^3H]spiperone and increasing concentrations of the competing drugs. Nonspecific binding is determined in the presence of 10 μM (+)butaclamol. […] Bound radioactivity is measured with a scintillation counter (Topcount, Packard) using a liquid-scintillation cocktail (Microscint 0, Packard). […]

[2] = target: α1 Receptor; experiment: α1 receptor binding; settings: read-out: α1 Receptor Binding IC50, Alpha1
[3] = target: T2, CYP1A2 (Homo sapiens, UniProt P05177); experiment: CYP450 inhibition, CYP1A2; format: in vitro ADME; settings: parameter and unit inferred
T2 sequence (P05177 1-516): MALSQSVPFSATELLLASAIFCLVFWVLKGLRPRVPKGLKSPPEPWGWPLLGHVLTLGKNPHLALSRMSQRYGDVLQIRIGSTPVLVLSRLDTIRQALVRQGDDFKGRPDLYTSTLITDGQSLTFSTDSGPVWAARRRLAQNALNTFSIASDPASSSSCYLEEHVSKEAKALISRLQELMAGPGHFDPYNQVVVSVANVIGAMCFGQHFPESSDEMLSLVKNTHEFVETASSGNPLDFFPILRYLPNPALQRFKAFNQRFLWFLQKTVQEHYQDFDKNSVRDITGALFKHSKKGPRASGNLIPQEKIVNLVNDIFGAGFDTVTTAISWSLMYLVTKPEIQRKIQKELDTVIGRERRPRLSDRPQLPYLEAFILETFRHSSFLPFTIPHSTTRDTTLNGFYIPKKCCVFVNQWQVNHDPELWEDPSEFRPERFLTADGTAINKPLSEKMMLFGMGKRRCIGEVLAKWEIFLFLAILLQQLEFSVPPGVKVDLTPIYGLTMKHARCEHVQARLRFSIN

[4] = target: T3, Human 5-HT2A Receptor (Homo sapiens, UniProt P28223); experiment: Human 5-HT2A receptor binding ([3H]ketanserin); settings: comment on Table 2
T3 construct: expressed in transfected cells; host or cells: CHO cells
T3 sequence (P28223 whole entry): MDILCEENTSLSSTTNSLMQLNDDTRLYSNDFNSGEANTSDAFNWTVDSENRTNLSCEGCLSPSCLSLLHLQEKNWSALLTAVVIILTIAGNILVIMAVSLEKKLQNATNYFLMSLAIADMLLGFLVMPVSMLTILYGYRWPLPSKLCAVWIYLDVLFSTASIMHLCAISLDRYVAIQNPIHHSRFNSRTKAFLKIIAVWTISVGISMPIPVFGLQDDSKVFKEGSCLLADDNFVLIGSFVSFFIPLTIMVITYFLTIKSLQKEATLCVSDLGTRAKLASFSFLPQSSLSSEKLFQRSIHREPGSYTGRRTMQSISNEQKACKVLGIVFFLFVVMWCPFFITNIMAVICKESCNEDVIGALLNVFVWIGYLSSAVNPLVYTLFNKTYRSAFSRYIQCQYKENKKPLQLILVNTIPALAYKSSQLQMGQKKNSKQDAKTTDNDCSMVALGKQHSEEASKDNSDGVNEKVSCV
Description: as §1
Nonspecific binding is determined in the presence of 1 μM ketanserin. […] Bound radioactivity is measured with a scintillation counter (Topcount, Packard) using a liquid scintillation cocktail (Microscint 0, Packard). The reference compound for this assay is ketanserin.

[5] = target: CYP2C19 (Homo sapiens, UniProt P33261); experiment: CYP450 inhibition, CYP2C19; format: in vitro ADME; settings: parameter and unit inferred
Sequence of CYP2C19 (P33261 whole entry): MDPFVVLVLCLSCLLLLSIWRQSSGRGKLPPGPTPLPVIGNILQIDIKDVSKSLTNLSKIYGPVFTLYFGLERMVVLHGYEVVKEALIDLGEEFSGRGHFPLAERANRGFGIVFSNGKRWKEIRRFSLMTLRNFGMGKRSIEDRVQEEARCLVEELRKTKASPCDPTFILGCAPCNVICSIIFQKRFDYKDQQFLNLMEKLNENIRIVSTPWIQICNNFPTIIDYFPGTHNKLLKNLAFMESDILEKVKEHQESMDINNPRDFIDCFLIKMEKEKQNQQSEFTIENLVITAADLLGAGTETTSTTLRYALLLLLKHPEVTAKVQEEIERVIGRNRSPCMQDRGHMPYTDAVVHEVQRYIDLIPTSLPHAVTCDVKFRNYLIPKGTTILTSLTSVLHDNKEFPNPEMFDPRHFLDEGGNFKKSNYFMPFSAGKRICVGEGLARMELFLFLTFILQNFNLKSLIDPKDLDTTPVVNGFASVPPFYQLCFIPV

[6] = test system: serotonin uptake; experiment: Serotonin uptake functional assay (rat cortex synaptosomes); format: biochemical; settings: for IC50: rat cortex synaptosomes, read-out: Monoamine Neuronal Transport IC50, 5-HT Uptake
Description: Characterization of serotonin uptake is performed using synaptosomes isolated in a 0.32 M sucrose buffer from a male Wistar rat cortex. The uptake of radiolabelled serotonin by synaptosomes (100 μg of proteins/point) is allowed by incubating them for 15 minutes at 37° C. in presence of test compounds and [3H]5-hydroxytryptamin (0.1 μCi/point). The experiment is performed in a deep well.
Synaptosomes and [3H]5-hydroxytryptamin are prepared in a Krebs buffer pH 7.4 containing 25 mM NaHCO3, 11 mM glucose and 50 μM ascorbic acid. This incubation buffer is oxygenated during 5 minutes before incubation. Basal control is incubated for 15 minutes at 4° C. in order to avoid any uptake. Following this incubation the uptake is stopped by filtration through an “unifilter 96-wells GFB” Packard plate washed with Krebs buffer containing 25 mM NaHCO3 in order to eliminate the free [3H]5-hydroxytrptamin. The radioactivity associated to the synaptosomes retained onto the unifilter corresponding to the uptake is then measured with a microplate scintillation counter Topcount, Packard using a scintillation liquid microscint 0, Packard.
[See Perovics and Müller “Pharmacological profile of hypericum extract: effect on serotonin uptake by postsynaptic receptors”, Arzeim.

[7] = immediate-release tablets; first-pass metabolism; cited from earlier work
[8] = test system: norepinephrine uptake; experiment: Norepinephrine uptake functional assay (rat hypothalamus synaptosomes); format: biochemical; settings: read-out: Monoamine Neuronal Transport IC50, NE uptake
Description: Characterization of norepinephrine uptake is performed using synaptosomes isolated at Cerep in a 0.32 M sucrose buffer from a male Wistar rat hypothalamus. The uptake of radiolabeled norepinephrine by synaptosomes (100 μg of proteins/point) is allowed by incubating them for 20 minutes at 37° C. in presence of test compounds and [3H]-norepinephrine (0.1 μCi/point). The experiment is performed in a deep well.
Synaptosomes and [3H]-norepinephrine are prepared in a Krebs buffer pH 7.4 containing 25 mM NaHCO3, 11 mM glucose and 50 μM ascorbic acid. This incubation buffer is oxygenated during 5 minutes before incubation. Basal control is incubated for 20 minutes at 4° C. in order to avoid any uptake. Following this incubation the uptake is stopped by filtration through an “unifilter 96-wells GFB” Packard plate washed with Krebs buffer containing 25 mM NaHCO3 in order to eliminate the free [3H]-norepinephrine. The radioactivity associated to the synaptosomes retained onto the unifilter corresponding to the uptake is then measured with a microplate scintillation counter Topcount, Packard using a scintillation liquid microscint 0, Packard.
[See Perovics and Müller, op.cit. (1995).]

[9] = target: CYP3A4 (Homo sapiens, UniProt P08684); experiment: CYP450 inhibition, CYP3A4 BZRes; format: in vitro ADME; settings: parameter and unit inferred
Sequence of CYP3A4 (P08684 whole entry): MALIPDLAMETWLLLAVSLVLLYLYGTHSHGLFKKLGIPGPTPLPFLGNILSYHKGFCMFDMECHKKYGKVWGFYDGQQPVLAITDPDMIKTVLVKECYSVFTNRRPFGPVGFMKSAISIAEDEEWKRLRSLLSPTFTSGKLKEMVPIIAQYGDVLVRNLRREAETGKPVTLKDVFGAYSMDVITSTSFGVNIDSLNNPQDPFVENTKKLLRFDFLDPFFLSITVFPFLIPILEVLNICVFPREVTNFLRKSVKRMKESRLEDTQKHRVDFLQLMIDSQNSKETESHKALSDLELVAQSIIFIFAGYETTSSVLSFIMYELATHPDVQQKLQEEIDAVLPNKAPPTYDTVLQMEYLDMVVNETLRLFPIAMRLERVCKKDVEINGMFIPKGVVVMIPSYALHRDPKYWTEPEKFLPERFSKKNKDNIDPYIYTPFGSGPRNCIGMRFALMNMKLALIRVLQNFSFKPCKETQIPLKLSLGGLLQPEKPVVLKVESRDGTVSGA

T1 sequence (P14416 whole entry): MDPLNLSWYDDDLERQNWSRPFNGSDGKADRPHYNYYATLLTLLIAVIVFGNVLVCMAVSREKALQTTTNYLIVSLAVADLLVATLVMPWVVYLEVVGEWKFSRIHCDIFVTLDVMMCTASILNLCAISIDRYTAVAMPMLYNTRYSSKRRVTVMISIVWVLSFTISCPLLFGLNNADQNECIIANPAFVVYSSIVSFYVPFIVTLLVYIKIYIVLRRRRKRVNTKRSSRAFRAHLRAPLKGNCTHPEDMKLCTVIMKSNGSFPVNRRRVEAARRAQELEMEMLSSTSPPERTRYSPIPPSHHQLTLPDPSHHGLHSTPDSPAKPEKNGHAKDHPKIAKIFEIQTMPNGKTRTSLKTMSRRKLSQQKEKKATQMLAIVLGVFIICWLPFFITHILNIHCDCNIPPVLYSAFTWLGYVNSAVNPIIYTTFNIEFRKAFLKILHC

| Affinity for the D2 receptor (in words) [1] | IC50 [2] | IC50 [3] | Affinity for 5HT2A receptors (in words) [4] | IC50 [5] | IC50 [6] | IC50 [8] | IC50 [9] | Compound | Activity in inhibiting serotonin uptake (in words) ([6]; comment on Table 4) | Bioavailability [7] |
| --- | --- | --- | --- | --- | --- | --- | --- | --- | --- | --- |
| excellent affinity | 0.419 µM | > 200 µM | highest affinity | > 200 µM | 0.79 µM |  |  | C[C@H](O)c1nn(CCCN2CCN(c3cccc(Cl)c3)CC2)c(=O)n1CCOc1ccccc1 [(S)—OH] | least active enantiomer |  |
|  | 0.381 µM |  |  |  | 0.5 µM | 1 µM |  | CC(O)c1nn(CCCN2CCN(c3cccc(Cl)c3)CC2)c(=O)n1CCOc1ccccc1 (racemic) [(RS)—OH, hydroxynefazodone] |  |  |
|  | 0.367 µM | > 200 µM |  |  | 0.64 µM | 1.2 µM | > 200 µM | C[C@@H](O)c1nn(CCCN2CCN(c3cccc(Cl)c3)CC2)c(=O)n1CCOc1ccccc1 [(R)—OH, (R)-Hydroxynefazodone] |  |  |

| Compound | Affinity for the D2 receptor (in words) [1] | IC50 [2] | IC50 [3] | Affinity for 5HT2A receptors (in words) [4] | IC50 [5] | IC50 [6] | IC50 [8] | IC50 [9] | Activity in inhibiting serotonin uptake (in words) ([6]; comment on Table 4) | Bioavailability [7] |
| --- | --- | --- | --- | --- | --- | --- | --- | --- | --- | --- |
| CCc1nn(CCCN2CCN(c3cccc(Cl)c3)CC2)c(=O)n1CCOc1ccccc1 [Nefazodone, 2-[3-[4-(3-chlorophenyl)-1-piperazinyl]-propyl-]5-ethyl-2,4-dihydro-4-(2-phenoxy-ethyl)-3H-1,2,4-triazol-3-one, reference compound] |  | 0.306 µM | > 200 µM |  |  | 0.2 µM | 1.2 µM |  |  | approximately 20% |
